Patent US20230151049A1, “Compounds Useful in HIV Therapy” (priority 2020, published 2023)
Where two headings read alike, the source gives them in different places. Blank lines part the entries; values can stand above or below the compound they belong to.

Assay: in vivo
Conditions: for Mean concentration of Example 4B: single IM 20 mg/kg equivalent of EFdA
Source text: General Protocol for Prodrugs Rat PK Studies Conducted at ChemPartner, China
A total of three naïve male Wistar Han rats, 200-250 g, were received from Beijing VR Laboratory Animal Co. LTD. Following an acclimation period, the animals were assigned to the study based on acceptable health as determined by a staff veterinarian and catheter patency. Fasting of the animals before or after dosing was not required.
On Day 1, each animal received a single intramuscular injection of prepared test article at a target dose level of 20 mg/kg equivalent of EFdA and at a dose volume of 2 mL/kg. The injection sites were at gastrocnemius and identified with an indelible marker for daily monitoring during the study. The animals were manually restrained for dosing and were not sedated. The dose suspension was mixed well by inversion before each dose to ensure homogeneity. […] In addition, all animals are monitored twice daily by the veterinary staff for clinical abnormalities.
Blood samples were collected from the study animals as detailed in the sample collection Table 6 below
Each blood sample for PK (200 μL) was collected from tail vein. The blood was transferred to a tube containing NaF/Na2EDTA anticoagulant and inverted several times to mix. Draw 150 μL whole blood from the tube, add 150 uL 100 mM ammonium acetate, pH 4 buffer and mix well. The resulting blood samples were transferred to individual polypropylene tubes and immediately placed on dry ice until storage at nominally −80° C. prior to LC-MS/MS analysis.

[1] = day 28, single IM Example 2B 20 mg/kg
[2] = day 35, single IM Example 2B 20 mg/kg
[3] = day 14, single IM Example 9B 20 mg/kg equivalent of EFdA
[4] = day 21, single IM Example 9B 20 mg/kg equivalent of EFdA
[5] = day 28, single IM Example 9B 20 mg/kg equivalent of EFdA

Compound: C#C[C@]1(COP(=O)(N[C@@H](Cc2ccccc2)C(=O)OCCCCCCCCCCCCCCCC)Oc2ccccc2)O[C@@H](n2cnc3c(N)nc(F)nc32)C[C@@H]1O (single isomer, unassigned) [Example 2B]
Mean concentration of EFdA (day 1, single IM Example 2B 20 mg/kg): BQL (BQL = below quantification limit, 0.2-0.3 ng/mL for both)
Mean concentration of EFdA (day 7, single IM Example 2B 20 mg/kg): BQL (BQL = below quantification limit, 0.2-0.3 ng/mL for both)
Mean concentration of EFdA (day 14, single IM Example 2B 20 mg/kg): BQL (BQL = below quantification limit, 0.2-0.3 ng/mL for both)
Mean concentration of EFdA (day 21, single IM Example 2B 20 mg/kg): BQL (BQL = below quantification limit, 0.2-0.3 ng/mL for both)
Mean concentration of EFdA [1]: BQL (BQL = below quantification limit, 0.2-0.3 ng/mL for both)
Mean concentration of Example 2B [1]: BQL (BQL = below quantification limit, 0.2-0.3 ng/mL for both)
Mean concentration of EFdA [2]: BQL (BQL = below quantification limit, 0.2-0.3 ng/mL for both)
Mean concentration of Example 2B [2]: BQL (BQL = below quantification limit, 0.2-0.3 ng/mL for both)
concentration at 1 day (male, Wistar Han, rat, in vivo, day 1, single IM Example 2B 20 mg/kg, read-out: Mean concentration of Example 2B): 0.514 ng/mL
concentration at 7 day (male, Wistar Han, rat, in vivo, day 7, single IM Example 2B 20 mg/kg, read-out: Mean concentration of Example 2B): 0.708 ng/mL
concentration at 14 day (male, Wistar Han, rat, in vivo, day 14, single IM Example 2B 20 mg/kg, read-out: Mean concentration of Example 2B): 1.11 ng/mL
concentration at 21 day (male, Wistar Han, rat, in vivo, day 21, single IM Example 2B 20 mg/kg, read-out: Mean concentration of Example 2B): 1.33 ng/mL

Compound: C#C[C@]1(COP(=O)(N[C@@H](Cc2ccccc2)C(=O)OCCCCCCCCCC)Oc2ccccc2)O[C@@H](n2cnc3c(N)nc(F)nc32)C[C@@H]1O (single isomer, unassigned) [Example 4B]
Mean concentration of Example 4B (day 0.0208): BQL (BQL = below quantification limit, 0.5 ng/mL for Example 4B and 0.5 to 1 ng/mL for EFdA)
Mean concentration of Example 4B (day 0.0417): BQL (BQL = below quantification limit, 0.5 ng/mL for Example 4B and 0.5 to 1 ng/mL for EFdA)
Mean concentration of Example 4B (day 0.125): BQL (BQL = below quantification limit, 0.5 ng/mL for Example 4B and 0.5 to 1 ng/mL for EFdA)
Mean concentration of Example 4B (day 0.208): BQL (BQL = below quantification limit, 0.5 ng/mL for Example 4B and 0.5 to 1 ng/mL for EFdA)
Mean concentration of Example 4B (day 0.292): BQL (BQL = below quantification limit, 0.5 ng/mL for Example 4B and 0.5 to 1 ng/mL for EFdA)
Mean concentration of Example 4B (day 1): BQL (BQL = below quantification limit, 0.5 ng/mL for Example 4B and 0.5 to 1 ng/mL for EFdA)
Mean concentration of Example 4B (day 2): BQL (BQL = below quantification limit, 0.5 ng/mL for Example 4B and 0.5 to 1 ng/mL for EFdA)
Mean concentration of Example 4B (day 3): BQL (BQL = below quantification limit, 0.5 ng/mL for Example 4B and 0.5 to 1 ng/mL for EFdA)
Mean concentration of Example 4B (day 4): BQL (BQL = below quantification limit, 0.5 ng/mL for Example 4B and 0.5 to 1 ng/mL for EFdA)
Mean concentration of Example 4B (day 5): BQL (BQL = below quantification limit, 0.5 ng/mL for Example 4B and 0.5 to 1 ng/mL for EFdA)
Mean concentration of Example 4B (day 7): BQL (BQL = below quantification limit, 0.5 ng/mL for Example 4B and 0.5 to 1 ng/mL for EFdA)
Mean concentration of EFdA (day 14, single IM Example 4B 20 mg/kg equivalent of EFdA): BQL (BQL = below quantification limit, 0.5 ng/mL for Example 4B and 0.5 to 1 ng/mL for EFdA)
Mean concentration of EFdA (day 17, single IM Example 4B 20 mg/kg equivalent of EFdA): BQL (BQL = below quantification limit, 0.5 ng/mL for Example 4B and 0.5 to 1 ng/mL for EFdA)
Mean concentration of EFdA (day 21, single IM Example 4B 20 mg/kg equivalent of EFdA): BQL (BQL = below quantification limit, 0.5 ng/mL for Example 4B and 0.5 to 1 ng/mL for EFdA)
Mean concentration of EFdA (day 24, single IM Example 4B 20 mg/kg equivalent of EFdA): BQL (BQL = below quantification limit, 0.5 ng/mL for Example 4B and 0.5 to 1 ng/mL for EFdA)
Mean concentration of EFdA (day 28, single IM Example 4B 20 mg/kg equivalent of EFdA): BQL (BQL = below quantification limit, 0.5 ng/mL for Example 4B and 0.5 to 1 ng/mL for EFdA)
Mean concentration of EFdA (day 31, single IM Example 4B 20 mg/kg equivalent of EFdA): BQL (BQL = below quantification limit, 0.5 ng/mL for Example 4B and 0.5 to 1 ng/mL for EFdA)

concentration at 1 day (male, Wistar Han, rat, whole blood, intramuscular, day 1, single IM Example 9B 20 mg/kg equivalent of EFdA, read-out: Mean concentration of Example 9B): 3.01 ng/mL
concentration at 7 day (male, Wistar Han, rat, whole blood, intramuscular, day 7, single IM Example 9B 20 mg/kg equivalent of EFdA, read-out: Mean concentration of Example 9B): 0.663 ng/mL
Compound: C#C[C@]1(COP(=O)(N[C@@H](Cc2ccccc2)C(=O)OCCCCCCCCCC)OCC(=O)OCCCCCCCCCC)O[C@@H](n2cnc3c(N)nc(F)nc32)C[C@@H]1O (single isomer, unassigned) [Example 9B]
Mean concentration of EFdA [3]: BQL (BQL = below quantification limit, 0.2-0.3 ng/mL for Example 9B and 0.2 ng/mL for EFdA)
Mean concentration of Example 9B [3]: BQL (BQL = below quantification limit, 0.2-0.3 ng/mL for Example 9B and 0.2 ng/mL for EFdA)
Mean concentration of EFdA [4]: BQL (BQL = below quantification limit, 0.2-0.3 ng/mL for Example 9B and 0.2 ng/mL for EFdA)
Mean concentration of Example 9B [4]: BQL (BQL = below quantification limit, 0.2-0.3 ng/mL for Example 9B and 0.2 ng/mL for EFdA)
Mean concentration of EFdA [5]: BQL (BQL = below quantification limit, 0.2-0.3 ng/mL for Example 9B and 0.2 ng/mL for EFdA)
Mean concentration of Example 9B [5]: BQL (BQL = below quantification limit, 0.2-0.3 ng/mL for Example 9B and 0.2 ng/mL for EFdA)
